Laboratory results from the SangsterLogP compilation.

Assay: method code SF, from DOI: 10.1002/em.2850190107, PMID: 1732103

With Nc1cccc(C(F)(F)F)c1 as the molecule, how does the logP read?
Its logP is 2.29.

With Nc1cccc2cc3ccccc3cc12 as the molecule, how does the logP read?
The logP was 3.69.

With Nc1cccc2c1Cc1ccccc1-2 as the molecule, how does the logP read?
Its logP is 3.18.

With Nc1ccc2c(c1)Cc1ccccc1-2 as the molecule, how does the logP read?
Its logP is 3.14.

For Nc1cc2ccccc2c2ccccc12, which logP is on record?
The logP was 3.56.

Which logP does the source give for Nc1ccc2c3c(cccc13)-c1ccccc1-2 here?
The logP was 4.2.

With COc1ccc(N)c(C)c1 as the molecule, how does the logP read?
Its logP is 1.23.

Which logP does the source give for Nc1cc(Cl)ccc1O here?
Its logP is 1.81.

With Nc1ccc(Oc2ccc(N)cc2)cc1 as the molecule, how does the logP read?
The logP was 1.36.

With Cc1ccc(C)c(N)c1 as the molecule, how does the logP read?
The logP was 1.83.

For COc1cc(-c2ccc(N)c(OC)c2)ccc1N, which logP is on record?
Its logP is 1.81.

With Nc1ccc2c(c1)Cc1cc(Br)ccc1-2 as the molecule, how does the logP read?
Its logP is 3.92.

Which logP does the source give for Cc1ccc(N)cc1N here?
The logP was 0.14.

For Cc1ccc(N)c(N)c1, which logP is on record?
Its logP is 0.66.

With Nc1ccccc1-c1ccccc1N as the molecule, how does the logP read?
The logP was 1.34.
